≈ marks a conversion by molar mass, not a printed value.
Key:
Type in all cases: cell-based
[1] = tested on: Gram positive bacteria, including S. aureus, E. faecalis and B. subtilis; assay: Antibacterial activity, statements not tied to one strain; conditions: for antibacterial activity in words: strain not singled out
Description: (§1) The antibacterial activities of the compounds synthesized as described above were evaluated by assay against several strains of Gram positive bacteria from the American Type Culture Collection (ATCC), Staphylococcus aureus 29213, Staphylococcus aureus 43300, Enterococcus faecalis 29212, and Bacillus subtilis PY79. The minimum inhibition concentration (MIC, μg/mL) of each compound synthesized was tested against four bacterial strains. The inhibition of bacterial growth was monitored using a standard colorimeter at 600 nm using a serial dilution at concentrations 238, 119, 59.5, 29.8, 14.9, 7.44, 3.72, 1.86, 0.93, 0.46 μg/ml. Chloramphenicol was tested as a control, and inhibits bacteria growth (MIC90) at 7.44, 7.44, 4.0, 2.0 μg/mL, respectively, for the four bacterial strains listed in Table 1. In Table 1, the MICs are reported as the concentrations at 50% inhibition of bacteria growth, and N stands for no inhibition.

[2] = tested on: Staphylococcus aureus 43300; assay: Antibacterial growth inhibition assay (serial dilution, colorimeter at 600 nm), S. aureus 43300; parameters: key to MIC, concentration at 50% inhibition of bacteria growth, S. aureus 43300: N stands for no inhibition; conditions: for MIC: Staphylococcus aureus, 43300, read-out: MIC, concentration at 50% inhibition of bacteria growth, S. aureus 43300; for MIC / MIC, concentration at 50% inhibition of bacteria growth, S. aureus 43300: 50% growth inhibition, methicillin resistant strain, serial dilution 238-0.46 μg/ml
Description: as §1

[3] = tested on: Enterococcus faecalis 29212; assay: Antibacterial growth inhibition assay (serial dilution, colorimeter at 600 nm), E. faecalis 29212; parameters: key to MIC, concentration at 50% inhibition of bacteria growth, E. faecalis 29212: N stands for no inhibition; conditions: for MIC, concentration at 50% inhibition of bacteria growth, E. faecalis 29212 / MIC: 50% growth inhibition, vancomycin susceptible strain, serial dilution 238-0.46 μg/ml; for MIC: Enterococcus faecalis, 29212, read-out: MIC, concentration at 50% inhibition of bacteria growth, E. faecalis 29212
Description: as §1

[4] = tested on: Staphylococcus aureus 29213; assay: Antibacterial growth inhibition assay (serial dilution, colorimeter at 600 nm), S. aureus 29213; parameters: key to MIC, concentration at 50% inhibition of bacteria growth, S. aureus 29213: N stands for no inhibition; conditions: for MIC / MIC90: Staphylococcus aureus, 29213; for MIC / MIC, concentration at 50% inhibition of bacteria growth, S. aureus 29213: 50% growth inhibition, methicillin susceptible strain, serial dilution 238-0.46 μg/ml; for MIC: read-out: MIC, concentration at 50% inhibition of bacteria growth, S. aureus 29213; for MIC90: concentration of inhibition at 90%, Table 2, read-out: MIC90 S. aureus 29213
Description: as §1

[5] = tested on: Bacillus subtilis PY79; assay: Antibacterial growth inhibition assay (serial dilution, colorimeter at 600 nm), B. subtilis PY79; parameters: key to MIC, concentration at 50% inhibition of bacteria growth, B. subtilis PY79: N stands for no inhibition; conditions: for MIC / MIC90: Bacillus subtilis, PY79; for MIC / MIC, concentration at 50% inhibition of bacteria growth, B. subtilis PY79: 50% growth inhibition, serial dilution 238-0.46 μg/ml; for MIC: read-out: MIC, concentration at 50% inhibition of bacteria growth, B. subtilis PY79; for MIC90: concentration of inhibition at 90%, Table 2, read-out: MIC90 B. subtilis PY79
Description: as §1

SMILES | MIC90 ([1]; strain not named in the sentence (Table 2: S. aureus 29213, B. subtilis PY79)) | antibacterial activity in words [1] | antibacterial activity in words ([2]; S. aureus 43300) | MIC [2] | MIC, concentration at 50% inhibition of bacteria growth, E. faecalis 29212 [3] | antibacterial activity in words ([3]; E. faecalis 29212) | antibacterial activity in words ([4]; S. aureus 29213) | MIC [4] | MIC90 [4] | antibacterial activity in words ([5]; B. subtilis PY79) | MIC [5] | MIC90 [5] | MIC [3] | MIC, concentration at 50% inhibition of bacteria growth, S. aureus 43300 [2] | MIC, concentration at 50% inhibition of bacteria growth, S. aureus 29213 [4] | MIC, concentration at 50% inhibition of bacteria growth, B. subtilis PY79 [5] | concentration of complete (greater than 90%) inhibition ([2]; S. aureus 43300, methicillin resistant) | concentration inhibiting over 90% growth ([3]; E. faecalis 29212) | concentration of complete (greater than 90%) inhibition ([4]; S. aureus 29213)
CCN1CC[C@@H](CN(Cc2ccccc2)Cc2ccc(Cl)c(Cl)c2)OC1=O [Compound A11, 6-{[benzyl-(3,4-dichloro-benzyl)-amino]-methyl}-3-ethyl-[1,3]oxazinan-2-one] | < 10 mg/L | most potent | excellent activity | 6.56 mg/L (≈ 16.1 µM) | N | no activity | excellent activity | 5.6 mg/L (≈ 13.7 µM) | 9.85 mg/L (≈ 24.2 µM) | excellent activity | 5 mg/L (≈ 12.3 µM) | 7.44 mg/L (≈ 18.3 µM) |  |  |  |  |  |  | 
CCN1CC[C@@H](CN(Cc2ccccc2)Cc2cccc3ccccc23)OC1=O [Compound A13] |  | most potent |  | 35 mg/L (≈ 90.1 µM) |  |  |  | 10 mg/L (≈ 25.7 µM) | 14.9 mg/L (≈ 38.4 µM) |  | 7.6 mg/L (≈ 19.6 µM) | 30 mg/L (≈ 77.2 µM) | 7.4 mg/L (≈ 19 µM) |  |  |  |  |  | 
CCN1CC[C@@H](CN(Cc2ccccc2)Cc2cccnc2)OC1=O [Compound A14] |  | decreased or nullified |  |  | 238 mg/L |  |  |  |  |  |  |  |  | N | N | N |  |  | 
CCN1CC[C@@H](CN(Cc2ccccc2)Cc2ccccn2)OC1=O [Compound A15] |  | decreased or nullified |  |  | N |  |  |  |  |  |  |  |  | N | N | N |  |  | 
CCN1CC[C@@H](CN(Cc2ccccc2)Cc2ccccc2C)OC1=O [Compound A17] |  | most potent |  | 22.5 mg/L (≈ 63.8 µM) |  |  |  | 22 mg/L (≈ 62.4 µM) | 29.8 mg/L (≈ 84.5 µM) |  | 26 mg/L (≈ 73.8 µM) | 59.5 mg/L (≈ 169 µM) | 8.1 mg/L (≈ 23 µM) |  |  |  | 30 µg/mL | 14.9 µg/mL | 30 µg/mL
CN1CC[C@@H](CN(Cc2ccccc2)Cc2ccc3ccccc3c2)OC1=O [Compound B9] |  | most potent |  | 13 mg/L (≈ 34.7 µM) |  |  |  | 11.5 mg/L (≈ 30.7 µM) | 14.9 mg/L (≈ 39.8 µM) |  | 12 mg/L (≈ 32 µM) | 30 mg/L (≈ 80.1 µM) | 14.9 mg/L (≈ 39.8 µM) |  |  |  |  |  | 
